The text below walks through data of US20230399341A1, “7-PHENYL SUBSTITUTED 2-AMINOQUINAZOLINE INHIBITORS OF HPK1” (MERCK SHARP & DOHME LLC, priority 2020, published 2023).

For this assay, the target named is T1, Human HPK1, catalytic domain (Homo sapiens, UniProt Q92918).
T1 sequence (Q92918 1-346): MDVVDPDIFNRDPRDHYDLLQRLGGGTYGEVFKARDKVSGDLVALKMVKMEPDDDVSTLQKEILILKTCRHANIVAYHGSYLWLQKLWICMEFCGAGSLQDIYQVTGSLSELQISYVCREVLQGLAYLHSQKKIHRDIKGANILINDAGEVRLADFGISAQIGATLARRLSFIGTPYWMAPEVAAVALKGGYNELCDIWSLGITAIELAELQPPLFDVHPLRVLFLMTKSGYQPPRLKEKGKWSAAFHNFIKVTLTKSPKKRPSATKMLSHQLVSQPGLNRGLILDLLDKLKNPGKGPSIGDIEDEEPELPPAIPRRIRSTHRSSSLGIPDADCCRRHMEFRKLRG
The assay can be described thus: HPK1-SLP76 TR-FRET Assay. It is filed as biochemical. The note with it: 75 pM HPK1, ATP 10 uM, SLP76 10 nM, 30 min pre-incubation, 60 min reaction. (In general: Time-resolved FRET reads energy transfer from a long-lived donor to a nearby acceptor.)

By IC50 is commonly meant the point on the concentration scale where inhibition reaches its midpoint.

The compound `COc1cc(CS(C)(=O)=O)ccc1Nc1ncc2c(N)c(F)c(-c3cnc4c(c3C)NCCO4)c(Cl)c2n1` (single isomer, unassigned) [Compound 2-101, (+ or −)-8-chloro-6-fluoro-N~2~-{2-methoxy-4-[(methylsulfony])methyl] phenyl}-7-(8-methyl-2,3-dihydro-1H-pyrido[2,3-b][1,4]oxazin-7-yl)quinazoline-2,5-diamine] returned an IC50 of 0.121 nM.

For the compound `COc1cc2c(cc1Nc1ncc3ccc(-c4cccc5nc(N)[nH]c45)cc3n1)CNCC2` [Compound 1-73], the IC50 amounted to 88.5 nM. The figure for `CCS(=O)(=O)Cc1ccc(Nc2ncc3c(N)c(F)c(-c4cnc5c(c4C)NCC(C)O5)cc3n2)c(F)c1` (single isomer, unassigned) [Compound 2-125, (R or S)-7-(3,8-dimethyl-2,3-dihydro-1H-pyrido[2,3-b][1,4]oxazin-7-yl)-N2-(4-((ethylsulfonyl)methyl)-2-fluorophenyl)-6-fluoroquinazoline-2,5-diamine] is 0.105 nM. The figure for `Cc1c(-c2cc3nc(Nc4ccc(CCC#N)cc4)ncc3c(N)c2F)cnc2c1NCCO2` [Compound 2-116, 3-(4-{[5-amino-6-fluoro-7-(8-methyl-2,3-dihydro-1H-pyrido[2,3-b][1,4]oxazin-7-yl)quinazolin-2-yl]amino}phenyl)propane-nitrile] is 0.142 nM; for `Cc1c(-c2cc3nc(Nc4cc5c(cc4C(N)=O)CCN(C)C5)ncc3c(N)c2F)cnc2c1NCCO2` [Compound 2-87, 7-((5-amino-6-fluoro-7-(8-methyl-2,3-dihydro-1H-pyrido[2,3-b][1,4]oxazin-7-yl)quinazolin-2-yl)amino)-2-methyl-1,2,3,4-tetrahydroisoquinoline-6-carboxamide] it is 100 nM. The same measure for `COc1cc2c(cc1Nc1ncc3ccc(-c4ccc(C(F)(F)C(N)=O)nc4)cc3n1)CN(C)CC2` [Compound 1-12, 2,2-difluoro-2-(5-{2-[(6-methoxy-2-methyl-1,2,3,4-tetrahydroisoquinolin-7-yl)amino]quinazolin-7-yl}pyridin-2-yl)acetamide]: 341 nM; for `COc1cc2c(cc1Nc1ncc3ccc(Nc4nccc(CO)n4)cc3n1)CN(C)CC2` [Compound 3-35, [2-({2-[(6-methoxy-2-methyl-1,2,3,4-tetrahydroisoquinolin-7-yl)amino]quinazolin-7-yl}-amino)pyrimidin-4-yl]methanol]: 1.67 nM; for `CCC1COC(=O)N1c1cc(N)c2cnc(Nc3cc4c(cc3OC)CCN(C)C4)nc2c1` (single isomer, unassigned) [Compound 3-15, (S or R)-3-{5-amino-2-[(6-methoxy-2-methyl-1,2,3,4-tetrahydroisoquinolin-7-yl)amino]quinazolin-7-yl}-4-ethyl-1,3-oxazolidin-2-one]: 3.24 nM. Regarding `COc1cc(F)ccc1Nc1ncc2c(N)c(F)c(-c3cnc4c(c3C)NCCO4)cc2n1` [Compound 2-69, 6-fluoro-N~2~-(4-fluoro-2-methoxyphenyl)-7-(8-methyl-2,3-dihydro-1H-pyrido[2,3-b][1,4]oxazin-7-yl)quinazoline-2,5-diamine], the IC50 came out at 0.51 nM. As to `COc1cc2c(cc1Nc1ncc3ccc(Nc4ccc5c(c4)N(C(C)=O)CC5)cc3n1)CN(C)CC2` [Compound 3-32, 1-[6-({2-[(6-methoxy-2-methyl-1,2,3,4-tetrahydroisoquinolin-7-yl)amino]quinazolin-7-yl}-amino)-2,3-dihydro-1H-indol-1-yl]ethan-1-one], half-maximal inhibition (IC50) was put at 57.1 nM. In turn, `Cc1c(-c2c(F)c(N)c3cnc(Nc4ccc5c(c4)CN(C)CC54CC4)nc3c2C)cnc2c1NCCO2` [Compound 2-110, (+ or −)-6-fluoro-8-methyl-N2-(2′-methyl-2′,3′-dihydro-1′H-spiro[cyclopropane-1,4′-isoquinolin]-7′-yl)-7-(8-methyl-2,3-dihydro-1H-pyrido[2,3-b][1,4]oxazin-7-yl)quinazoline-2,5-diamine] had an IC50 of 0.0706 nM. `COc1cc2c(cc1Nc1ncc3ccc(-c4cccc5c4CNCC5)cc3n1)CN(C)CC2` [Compound 1-9, N-(6-methoxy-2-methyl-1,2,3,4-tetrahydroisoquinolin-7-yl)-7-(1,2,3,4-tetrahydroisoquinolin-8-yl)quinazolin-2-amine] displayed an IC50 of 42.9 nM.

Take `CNC(=O)Cc1ccc(Nc2ncc3cc(F)c(-c4cnc5c(c4C)NCCO5)cc3n2)cc1` [Compound 1-130, 2-(4-{[6-fluoro-7-(8-methyl-2,3-dihydro-1H-pyrido[2,3-b][1,4]oxazin-7-yl)quinazolin-2-yl]amino}phenyl)-N-methylacetamide]: the IC50 stood at 0.0726 nM. The figure for `COc1cc2c(cc1Nc1ncc3ccc(N4CC(CN)OC4=O)cc3n1)CN(C)CC2` (racemic) [Compound 3-11, (S and R)-5-(aminomethyl)-3-{2-[(6-methoxy-2-methyl-1,2,3,4-tetrahydroisoquinolin-7-yl)amino]quinazolin-7-yl}-1,3-oxazolidin-2-one] is 82.4 nM; for `CCN(CC)S(=O)(=O)c1cccc(-c2ccc3cnc(Nc4cc5c(cc4OC)CCNC5)nc3c2)c1` [Compound 1-80, N,N-diethyl-3-{2-[(6-methoxy-1,2,3,4-tetrahydroisoquinolin-7-yl)amino]quinazolin-7-yl}benzene-1-sulfonamide] it is 23.9 nM. The figure for `Cc1c(-c2cc3nc(Nc4cncnc4)ncc3c(N)c2F)cnc2c1NCCO2` [Compound 2-19, 6-fluoro-7-(8-methyl-2,3-dihydro-1H-pyrido[2,3-b][1,4]oxazin-7-yl)-N~2~- (pyrimidin-5-yl)quinazoline-2,5-diamine] is 1.34 nM; for `COc1cc2c(cc1Nc1ncc3ccc(NCC4CCS(=O)(=O)C4)cc3n1)CN(C)CC2` (racemic) [Compound 3-37, (S and R)-3-1({2-[(6-methoxy-2-methyl-1,2,3,4-tetrahydroiso-quinolin-7-yl)amino]quinazolin-7-yl}amino)methyl]-1lambda~ 6~-thiolane-1,1-dione] it is 73.1 nM; for `COc1cc2c(cc1Nc1ncc3ccc(-c4ccc5c(c4)OCCO5)cc3n1)CNCC2` [Compound 1-70, 7-(2,3-dihydro-1,4-benzodioxan-6-yl)-N-(6-methoxy-1,2,3,4-tetrahydroisoquinolin-7-yl)quinazolin-2-amine] it is 140 nM. The same measure for `CS(=O)(=O)Cc1ccc(Nc2ncc3c(N)c(F)c(-c4cnc5c(c4Cl)NCCO5)cc3n2)cc1` [Compound 2-123, 7-(8-chloro-2,3-dihydro-1H-pyrido[2,3-b][1,4]oxazin-7-yl)-6-fluoro-N2-(4-((methylsulfonyl)methyl)phenyl)quinazoline-2,5-diamine]: 0.037 nM. `Cc1c(-c2cc3nc(Nc4ccc(N5CCOC5=O)cc4)ncc3c(N)c2F)cnc2c1NCCO2` [Compound 2-67, 3-(4-{[5-amino-6-fluoro-7-(8-methyl-2,3-dihydro-1H-pyrido[2,3-b][1,4]oxazin-7-yl)quinazolin-2-yl]amino}phenyl)-1,3-oxazolidin-2-one] came in with an IC50 of 0.0508 nM. The figure for `CNC(=O)C1(c2ccc(Nc3ncc4c(N)c(F)c(-c5cnc6c(c5C)NCCO6)cc4n3)cc2)CCCC1` [Compound 2-83, 1-(4-((5-amino-6-fluoro-7-(8-methyl-2,3-dihydro-1H-pyrido[2,3-b][1,4]oxazin-7-yl)quinazolin-2-yl)amino)phenyl)-N-methylcyclopentane-1-carboxamide] is 0.0417 nM. The same measure for `COc1cc2c(cc1Nc1ncc3ccc(NCC4CNC(=O)O4)cc3n1)CN(C)CC2` (racemic) [Compound 3-26, (S and R)-5-[({2-1(6-methoxy-2-methyl-1,2,3,4-tetrahydroiso-quinolin-7-yl)amino]quinazolin-7-yl}amino)methyl]-1,3-oxazol-idin-2-one]: 149 nM.

`Cc1c(-c2c(F)c(N)c3cnc(Nc4ccc5c(c4)CN(C)CC54CC4)nc3c2Cl)cnc2c1NCCO2` [Compound 2-100, (+ or −)-8-chloro-6-fluoro-7-(8-methyl-2,3-dihydro-1H-pyrido[2,3-b][1,4]oxazin-7-yl)-N~2~- (2′-methyl-2′,3′-dihydro-1′H-spiro[cyclopropane-1,4′-isoquinolin]-7′-yl)quinazoline-2,5-diamine] yielded an IC50 of 1.19 nM. The same measure for `COc1cc(CS(C)(=O)=O)ccc1Nc1ncc2c(N)c(F)c(-c3cnc4c(c3C)NCCO4)c(Cl)c2n1` (single isomer, unassigned) [Compound 2-99, (+ or −)-8-chloro-6-fluoro-N~2~-{2-methoxy-4-[(methylsulfonyl)methyl]phenyl}-7-(8-methyl-2,3-dihydro-1H-pyrido[2,3-b][1,4]oxazin-7-yl)quinazoline-2,5-diamine]: 12.7 nM; for `CCS(=O)(=O)Cc1ccc(Nc2ncc3cc(F)c(-c4cnc5c(c4C)NCCO5)cc3n2)cc1` [Compound 1-134, N-{4-[(ethylsulfonyl)methyl]phe-nyl}-6-fluoro-7-(8-methyl-2,3-dihydro-1H-pyrido[2,3-b][1,4]oxazin-7-yl)quinazolin-2-amine]: 0.0425 nM; for `COc1cc2c(cc1Nc1ncc3ccc(-c4cc(C5(CO)CC5)ccc4OC)cc3n1)CNCC2` [Compound 1-74, [1-(4-methoxy-3-{2-[(6-methoxy-1,2,3,4-tetrahydroisoquinolin-7-yl)amino]quinazolin-7-yl}phenyl)cyclo-propyl]methanol]: 143 nM.

The compound `Cc1c(-c2c(F)c(N)c3cnc(Nc4ccc(CS(C)(=O)=O)cc4F)nc3c2Cl)cnc2c1NCCO2` (single isomer, unassigned) [Compound 2-131, 8-chloro-6-fluoro-N2-(2-fluoro-4-((methylsulfonyl)methyl)phenyl)-7-(8-methyl-2,3-dihydro-1H-pyrido[2,3-b][1,4]oxazin-7-yl)quinazoline-2,5-diamine] showed a half-maximal inhibitory concentration (IC50) of 0.126 nM.
